The record followed here is patent US6787674B1, “(+)-1-Bisabolone isolated from cymbopogon flexuosus and antibacterial activity thereof” (Council of Scientific and Industrial Research, priority 2003, dated 2004).

What all share (type): cell-based
For one assay, the system named is Bacillus cereus. In words: Filter paper disc agar diffusion, antibacterial activity. The protocol:
(§1) The pure bacterial cultures of test bacteria were procured from laboratory culture collection maintained at RRL, Jammu. The bacterial organisms were subcultured on L B. broth. Following filter paper disc agar diffusion method (Maruzella, J. C. and Henry, P. A. 1958, the antifungal activity of perfume oils. J. Amer. Pharm. Ass., 47:471-476).
(§2) 20 ml of sterilized medium was taken in each petriplate. After the agar has hardened, 2 ml of 24 hrs. broth culture of organism was added to each petriplate and mixed thoroughly by rotatory motion of the plate and allowed to set. The sterilized Whatman filter paper No. 1 discs (4 mm diameter) were thoroughly moistened with 5 μl of (+)-1-bisabolone of formula 1 in dilution of 1:50, 1:100 in the solvent Tween-80 and placed on the seeded agar plates. The standard antibiotic disc of ampicillin was placed on surface of each seeded petriplate as standard for anti-bacterial activity. Three each of seeded agar plates for each organism were incubated at 37° C. for 36 hrs. […] The zone of inhibition was measured with the help of a divider. The […] were performed in triplicate and average zones of inhibition for anti-bacterial activity are recorded in Table-2.
(In general: In agar diffusion tests the substance spreads into inoculated agar from a disc or well.)

A further assay deals with Bacillus subtilis. The description is as above. The protocol: as §1, §2
A further assay deals with Staphylococcus aureus. The description is as above. The procedure: as §1, §2
The next assay has as its system other test bacteria. In words: In vitro antibacterial activity, other test bacteria. The protocol:
as §1, §2

In the next assay the test system is gram positive bacteria. In words: In vitro antibacterial activity compared with standard ampicillin. The protocol:
as §1, §2

[1] abbreviates: Pure 1, 4 mm disc, 37° C., 36 hrs.
[2] abbreviates: dilution 1:50 in Tween-80, 5 μl on 4 mm disc, 37° C., 36 hrs.
[3] abbreviates: dilution 1:100 in Tween-80, 5 μl on 4 mm disc, 37° C., 36 hrs.
Where [4] appears, read: control (standard antibiotic disc of ampicillin).

Consider `CC(C)=CCC[C@H](C)[C@H]1CCC(C)=CC1=O` [(+)-1-bisabolone], for which the “in vitro antibacterial activity (in words)” value is “strongly active” in the assay with Bacillus cereus, “strongly active” in the assay with Bacillus subtilis, “strongly active” with Staphylococcus aureus and “good to moderate activity” in the assay with other test bacteria. In addition, the “Diameter (mm) of zone inhibition” value in the assay on Bacillus cereus (setting [1]) turned out to be 21 mm; in the assay with Bacillus cereus (setting [2]), 13 mm; in the assay with Bacillus cereus (setting [3]), 9 mm; in the assay with Bacillus subtilis (setting [1]) it was 19 mm; with Bacillus subtilis (setting [2]), 15 mm; with Bacillus subtilis (setting [3]), 13 mm. The entries for the “Diameter (mm) of zone inhibition” value in the assay with Staphylococcus aureus (setting [1]), in the assay on Staphylococcus aureus (setting [2]) and with Staphylococcus aureus (setting [3]) were 24 mm, 19 mm and 13 mm, respectively. The “activity compared with the standard ampicillin” value in the assay with gram positive bacteria is on record as “far better activity”.

Turning to `CC1(C)S[C@@H]2[C@H](NC(=O)[C@H](N)c3ccccc3)C(=O)N2[C@H]1C(=O)O` [control, ampicillin, reference compound], the “Diameter (mm) of zone inhibition” value with Bacillus cereus (setting [4]) came out at 4 mm; in the assay with Bacillus subtilis (setting [4]), 5 mm; with Staphylococcus aureus (setting [4]), 6 mm.
